Test systems include NCI-H522 lung; SK-MEL-5 melanoma; U251 CNS; HCC-2998 colon; MDA-N; HT29 colon; OVCAR-8 ovarian; SW-620 colon; SK-OV-3 ovarian; SK-MEL-28 melanoma; SF-539 CNS; UACC-62 melanoma; MCF7 breast; CCRF-CEM leukemia; UACC-257 melanoma; EKVX NSCLC; KM12 colon; MDA-MB-231 breast; SNB-19 CNS; T-47D breast.
Assay in all cases: DTP human tumour cell line panel, 48 h

Structures are written as SMILES.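 Following 48 hours of exposure in 96-well plates, responses at five concentrations were used to interpolate endpoints linearly. TGI marks complete inhibition of growth.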 A value given as a limit tells only on which side of the number the result lay.

We go through eleven compounds from PubChem BioAssay (NCI).

On to `Cc1ccc(C2=Nc3cccc4cccc(c34)N2)cc1`, for which the total growth inhibition concentration (TGI) in the experiment on NCI-H522 lung, in the experiment with SK-MEL-5 melanoma, in the experiment on U251 CNS, with HCC-2998 colon, in the experiment on MDA-N and in the experiment on HT29 colon was over 100 µM each time. Besides, the TGI in the experiment on OVCAR-8 ovarian, in the experiment with SW-620 colon, in the experiment on SK-OV-3 ovarian, in the experiment on SK-MEL-28 melanoma, in the experiment with SF-539 CNS and with UACC-62 melanoma was over 100 µM in each case. Also, the concentration for total growth inhibition (TGI) with MCF7 breast, with CCRF-CEM leukemia, with UACC-257 melanoma, in the experiment on EKVX NSCLC, in the experiment with KM12 colon and in the experiment on MDA-MB-231 breast was over 100 µM each time. The total growth inhibition concentration (TGI) with SNB-19 CNS and in the experiment on T-47D breast was over 100 µM throughout.

With `O=C(/C=C/c1ccccc1)CCN1CCN(CCC(=O)/C=C/c2ccccc2)CC1`, the TGI in the experiment with NCI-H522 lung was determined as 30 µM; in the experiment on SK-MEL-5 melanoma, 28.7 µM; with U251 CNS, 30.3 µM; in the experiment with HCC-2998 colon, 30.4 µM; in the experiment with MDA-N it was 6.79 µM; in the experiment on HT29 colon it was 30.4 µM. Besides, the total growth inhibition concentration (TGI) in the experiment on OVCAR-8 ovarian is 31.4 µM; in the experiment with SW-620 colon it was 17.4 µM; in the experiment on SK-OV-3 ovarian, over 100 µM; in the experiment on SK-MEL-28 melanoma it was 27.8 µM; with SF-539 CNS, 28.8 µM; in the experiment with UACC-62 melanoma, 30.2 µM. Besides, the TGI in the experiment with MCF7 breast worked out at 20.7 µM; in the experiment with CCRF-CEM leukemia it was 28.1 µM; in the experiment on UACC-257 melanoma, 24 µM; in the experiment on EKVX NSCLC, 35.2 µM; with KM12 colon, 17 µM; in the experiment with MDA-MB-231 breast it was 17 µM. Also, the concentration for total growth inhibition (TGI) worked out at 32.6 µM in the experiment on SNB-19 CNS and 31.2 µM in the experiment with T-47D breast.

Take `CCC1NC(=O)C1NC(=O)OC` (stereo not given): the TGI in the experiment with NCI-H522 lung, in the experiment on SK-MEL-5 melanoma, in the experiment on U251 CNS, with HCC-2998 colon, in the experiment on MDA-N and in the experiment on HT29 colon was over 100 µM each time. The concentration for total growth inhibition (TGI) in the experiment with OVCAR-8 ovarian, in the experiment on SW-620 colon, with SK-OV-3 ovarian, in the experiment with SK-MEL-28 melanoma, in the experiment on SF-539 CNS and in the experiment on UACC-62 melanoma was over 100 µM in each case. Moreover, the concentration for total growth inhibition (TGI) in the experiment on MCF7 breast, in the experiment with CCRF-CEM leukemia, in the experiment on UACC-257 melanoma, in the experiment with EKVX NSCLC, in the experiment with KM12 colon and with MDA-MB-231 breast was over 100 µM each time. The total growth inhibition concentration (TGI) with SNB-19 CNS and with T-47D breast was over 100 µM throughout.

Take `NC(=O)NNc1nc2ccccc2c(=O)n1NC(=O)C(=O)Nc1ccc(Cl)cc1Cl`: the TGI with NCI-H522 lung, with SK-MEL-5 melanoma, in the experiment on U251 CNS, in the experiment on HCC-2998 colon, in the experiment with MDA-N and in the experiment on HT29 colon was over 100 µM throughout. Further, the TGI with OVCAR-8 ovarian, in the experiment on SW-620 colon, in the experiment on SK-OV-3 ovarian, with SK-MEL-28 melanoma, in the experiment on SF-539 CNS and in the experiment with UACC-62 melanoma was over 100 µM throughout. In addition, the TGI in the experiment with MCF7 breast, in the experiment on CCRF-CEM leukemia, in the experiment with UACC-257 melanoma, in the experiment with EKVX NSCLC, in the experiment on KM12 colon and with MDA-MB-231 breast was over 100 µM each time. In addition, the TGI with SNB-19 CNS and with T-47D breast was over 100 µM each time.

In the case of `S=c1sc2c(s1)SCCCCSCCCCSc1sc(=S)sc1SCCCCSCCCCS2`, the concentration for total growth inhibition (TGI) in the experiment on NCI-H522 lung, with SK-MEL-5 melanoma, with U251 CNS, with HCC-2998 colon, in the experiment on MDA-N and with HT29 colon was over 100 µM each time. The TGI in the experiment with OVCAR-8 ovarian, in the experiment with SW-620 colon, in the experiment on SK-OV-3 ovarian, with SK-MEL-28 melanoma, in the experiment on SF-539 CNS and in the experiment with UACC-62 melanoma was over 100 µM each time. Moreover, the TGI in the experiment on MCF7 breast, in the experiment on CCRF-CEM leukemia, in the experiment on UACC-257 melanoma, in the experiment with EKVX NSCLC, in the experiment with KM12 colon and with MDA-MB-231 breast was over 100 µM each time. In addition, the total growth inhibition concentration (TGI) in the experiment with SNB-19 CNS and in the experiment on T-47D breast was over 100 µM throughout.

On to `O=C(Cc1ccccc1)NNc1nc(NNC(=O)c2ccncc2)nc(Nc2ccc([N+](=O)[O-])cc2)n1`, for which the total growth inhibition concentration (TGI) in the experiment with NCI-H522 lung, in the experiment with SK-MEL-5 melanoma, in the experiment with U251 CNS, in the experiment with HCC-2998 colon, in the experiment on MDA-N and with HT29 colon was over 10 µM throughout. In addition, the TGI with OVCAR-8 ovarian, in the experiment with SW-620 colon, with SK-OV-3 ovarian, in the experiment with SK-MEL-28 melanoma, with SF-539 CNS and with UACC-62 melanoma was over 10 µM each time. Moreover, the concentration for total growth inhibition (TGI) in the experiment with MCF7 breast, in the experiment with CCRF-CEM leukemia, in the experiment with UACC-257 melanoma, with EKVX NSCLC, in the experiment on KM12 colon and in the experiment on MDA-MB-231 breast was over 10 µM each time. Also, the concentration for total growth inhibition (TGI) in the experiment on SNB-19 CNS and with T-47D breast was over 10 µM in each case.

As for `O=C(C1OC1c1ccc(O)cc1)C12CC3CC(CC(C3)C1)C2` (stereo not given), the TGI with NCI-H522 lung was 24.7 µM; in the experiment with SK-MEL-5 melanoma, over 100 µM; with U251 CNS it was over 100 µM; in the experiment on HCC-2998 colon, over 100 µM; with MDA-N, over 75 µM; with HT29 colon it was over 100 µM. Also, the concentration for total growth inhibition (TGI) in the experiment on OVCAR-8 ovarian was over 100 µM; with SW-620 colon it was 70.3 µM; with SK-OV-3 ovarian, over 100 µM; in the experiment with SK-MEL-28 melanoma, over 100 µM; with SF-539 CNS, over 94.9 µM; in the experiment with UACC-62 melanoma, over 100 µM. For the same compound, the TGI is over 100 µM in the experiment on MCF7 breast; over 41.5 µM in the experiment on CCRF-CEM leukemia; over 100 µM with UACC-257 melanoma; over 78.2 µM in the experiment with EKVX NSCLC; over 100 µM in the experiment with KM12 colon; over 100 µM in the experiment on MDA-MB-231 breast. The TGI with SNB-19 CNS was over 100 µM; with T-47D breast, 51.6 µM.

On to `CCN(CC)CCCNc1nc(=O)[nH]c(C)c1C(=O)Nc1cccc2cc3ccccc3cc12`, for which the concentration for total growth inhibition (TGI) in the experiment with NCI-H522 lung, in the experiment with SK-MEL-5 melanoma, with U251 CNS, in the experiment with HCC-2998 colon, in the experiment with MDA-N and in the experiment with HT29 colon was over 100 µM throughout. Further, the TGI with OVCAR-8 ovarian, in the experiment with SW-620 colon, in the experiment with SK-OV-3 ovarian, in the experiment on SK-MEL-28 melanoma, in the experiment on SF-539 CNS and in the experiment on UACC-62 melanoma was over 100 µM in each case. For the same compound, the TGI with MCF7 breast, in the experiment on CCRF-CEM leukemia, in the experiment on UACC-257 melanoma, in the experiment with EKVX NSCLC, in the experiment on KM12 colon and with MDA-MB-231 breast was over 100 µM in each case. The concentration for total growth inhibition (TGI) in the experiment with SNB-19 CNS and in the experiment with T-47D breast was over 100 µM each time.

In the case of `CC(NNC(=O)c1ccncc1)c1ccc(F)cc1` (stereo not given), the total growth inhibition concentration (TGI) with NCI-H522 lung, with SK-MEL-5 melanoma, with U251 CNS, with HCC-2998 colon, with MDA-N and in the experiment on HT29 colon was over 100 µM in each case. Also, the TGI with OVCAR-8 ovarian, in the experiment on SW-620 colon, in the experiment on SK-OV-3 ovarian, in the experiment with SK-MEL-28 melanoma, in the experiment on SF-539 CNS and with UACC-62 melanoma was over 100 µM each time. The concentration for total growth inhibition (TGI) in the experiment on MCF7 breast, in the experiment with CCRF-CEM leukemia, in the experiment on UACC-257 melanoma, in the experiment with EKVX NSCLC, in the experiment on KM12 colon and in the experiment on MDA-MB-231 breast was over 100 µM throughout. Besides, the TGI with SNB-19 CNS and with T-47D breast was over 100 µM in each case.

In the case of `COc1ccc2c(C)cc(N/N=C(\C)C=O)nc2c1`, the concentration for total growth inhibition (TGI) with NCI-H522 lung is 29.6 µM; in the experiment with SK-MEL-5 melanoma it was 26.7 µM; in the experiment with U251 CNS, 30.4 µM; with HCC-2998 colon it was 24.5 µM; with MDA-N it was 28.6 µM; in the experiment on HT29 colon, 25 µM. Besides, the TGI with OVCAR-8 ovarian was found to be 25 µM; in the experiment with SW-620 colon it was 27.5 µM; in the experiment on SK-OV-3 ovarian it was 23.2 µM; in the experiment on SK-MEL-28 melanoma, 32.4 µM; in the experiment on SF-539 CNS it was 20.3 µM; in the experiment on UACC-62 melanoma, 27.3 µM. The concentration for total growth inhibition (TGI) in the experiment with MCF7 breast is 26 µM; in the experiment with CCRF-CEM leukemia it was 4 µM; with UACC-257 melanoma it was 33.9 µM; in the experiment on EKVX NSCLC, 32.8 µM; with KM12 colon, 25.8 µM; in the experiment with MDA-MB-231 breast it was 24 µM. The figures for the TGI in the experiment with SNB-19 CNS and with T-47D breast were 31.6 µM and 41.3 µM, respectively.

For the compound `CN(CC1(CO)CCC1)c1cc(Cl)nc(N)n1`, the TGI in the experiment with NCI-H522 lung, in the experiment with SK-MEL-5 melanoma, in the experiment on U251 CNS, in the experiment with HCC-2998 colon, in the experiment on MDA-N and with HT29 colon was over 100 µM each time. Moreover, the total growth inhibition concentration (TGI) in the experiment with OVCAR-8 ovarian, in the experiment on SW-620 colon, in the experiment with SK-OV-3 ovarian, with SK-MEL-28 melanoma, in the experiment with SF-539 CNS and in the experiment on UACC-62 melanoma was over 100 µM each time. Besides, the concentration for total growth inhibition (TGI) in the experiment on MCF7 breast, in the experiment with CCRF-CEM leukemia, with UACC-257 melanoma, with EKVX NSCLC, with KM12 colon and in the experiment on MDA-MB-231 breast was over 100 µM each time. Further, the TGI with SNB-19 CNS and with T-47D breast was over 100 µM in each case.
